Results taken from publication PMC12136037, “Type II kinase inhibitors that target Parkinson’s disease–associated LRRK2” (Science Advances, 2025).
Values joined by “and” are separate entries in the source; they are usually repeats but may differ in a detail not shown here. Equal values may be shown once.

Molecular target: T1, LRRK2^RCKW (Homo sapiens, UniProt Q5S007)
T1 construct: LRRK2 R1327 to E2527; His6-Z-tag (TEV cleavable) (N, cleaved yes); host or cells: Sf9 insect cells (baculovirus)
T1 sequence (Q5S007 1327-2527): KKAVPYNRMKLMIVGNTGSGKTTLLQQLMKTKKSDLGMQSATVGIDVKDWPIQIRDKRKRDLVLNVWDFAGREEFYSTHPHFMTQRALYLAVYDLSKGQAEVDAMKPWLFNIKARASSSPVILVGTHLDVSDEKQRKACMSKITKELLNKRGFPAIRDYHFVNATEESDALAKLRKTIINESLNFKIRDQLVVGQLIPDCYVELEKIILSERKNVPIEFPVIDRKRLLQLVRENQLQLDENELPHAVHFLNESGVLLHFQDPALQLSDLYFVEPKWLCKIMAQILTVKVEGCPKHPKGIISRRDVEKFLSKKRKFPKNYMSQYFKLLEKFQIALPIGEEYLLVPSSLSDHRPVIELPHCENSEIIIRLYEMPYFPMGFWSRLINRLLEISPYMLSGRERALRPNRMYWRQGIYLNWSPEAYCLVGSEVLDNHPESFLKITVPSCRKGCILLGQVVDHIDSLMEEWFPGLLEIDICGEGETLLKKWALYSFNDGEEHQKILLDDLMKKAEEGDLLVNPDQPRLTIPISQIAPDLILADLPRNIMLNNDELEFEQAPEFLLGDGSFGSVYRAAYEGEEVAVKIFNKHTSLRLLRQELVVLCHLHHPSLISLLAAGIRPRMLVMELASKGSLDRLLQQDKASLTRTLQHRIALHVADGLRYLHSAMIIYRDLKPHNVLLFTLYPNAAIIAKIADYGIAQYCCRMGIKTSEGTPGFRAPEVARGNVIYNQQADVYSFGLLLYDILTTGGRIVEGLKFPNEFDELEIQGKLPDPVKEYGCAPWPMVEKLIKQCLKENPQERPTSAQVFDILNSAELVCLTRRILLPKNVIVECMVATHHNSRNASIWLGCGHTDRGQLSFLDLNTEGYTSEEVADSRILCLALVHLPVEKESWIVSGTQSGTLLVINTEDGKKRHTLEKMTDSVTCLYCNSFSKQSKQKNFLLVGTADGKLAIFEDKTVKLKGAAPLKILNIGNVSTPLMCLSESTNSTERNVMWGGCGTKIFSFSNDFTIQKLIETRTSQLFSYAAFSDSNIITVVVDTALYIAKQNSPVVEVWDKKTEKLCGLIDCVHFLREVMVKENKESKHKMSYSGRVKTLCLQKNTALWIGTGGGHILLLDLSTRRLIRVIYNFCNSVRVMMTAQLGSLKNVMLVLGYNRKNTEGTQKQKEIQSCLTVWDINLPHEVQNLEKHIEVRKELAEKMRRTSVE
Assay: MS-based activity assay, Rab8a phosphorylation (pT72)
Type: biochemical
Conditions: for % phosphorylation: Rab8a; for % phosphorylation / Normalized: single runs; for LRRK2RCKW activity (% control): mean of n=3; for IC50: mass spectrometry, 1 mM ATP, 4 h, read-out: IC50, LRRK2^RCKW-mediated phosphorylation of Rab8a; for Normalized: normalized % phosphorylation of Rab8a
Protocol: To determine IC50 values for selected inhibitors, activity assay was performed using LRRK2^RCKW and Rab8A substrate (table S4). LRRK2^RCKW (20 nM) was incubated with 5 μM substrate and a concentration series of the respective inhibitor in 20 mM Hepes (pH 7.4), 100 mM NaCl, 0.5 mM TCEP, 0.5% glycerol, 20 μM GDP, and 2.5 mM MgCl2. The reaction was started by adding 1 mM ATP and incubated at room temperature for 4 hours. The phosphorylation reaction was stopped by addition of MS buffer (0.1% formic acid in water). Reaction mix (5 μl) was injected into an Agilent 6230 electrospray ionization time-of-flight mass spectrometer coupled to a 1260 Infinity liquid chromatography unit (flow rate at 0.4 ml/min using a solvent gradient of water to acetonitrile with 0.1% formic acid). Data were acquired using the MassHunter LC/MS Data Acquisition software and analyzed using the BioConfirm vB.08.00 tool (both Agilent Technology, www.agilent.com/en/product/software-informatics/mass-spectrometry-software, RRID: SCR_016657).
Peak intensities of unphosphorylated and phosphorylated Rab8A were quantified, and the relative kinase activity was calculated as a ratio. To determine the IC50, a nonlinear regression with variable slope was fitted to the datapoints with GraphPad Prism (www.graphpad.com/, RRID:SCR_002798). (For step-by-step protocol, see dx.doi.org/10.17504/protocols.io.6qpvr385ovmk/v2.)

[1] = inhibitor 0.21 (0.212), listed as RN277
[2] = inhibitor 0.64 (0.635), listed as RN277
[3] = inhibitor 1.91 (2), listed as RN277
[4] = inhibitor 5.72 (6), listed as RN277
[5] = inhibitor 17.15 (17), listed as RN277
[6] = inhibitor 51.44 (51), listed as RN277
[7] = inhibitor 154.32 (154), listed as RN277
[8] = inhibitor 462.96 (463), listed as RN277
[9] = inhibitor 1388.89 (1389), listed as RN277
[10] = inhibitor 4166.67 (4167), listed as RN277
[11] = inhibitor 12500, listed as RN277
[12] = inhibitor 0.21 (0.212), listed as RN341
[13] = inhibitor 0.64 (0.635), listed as RN341
[14] = inhibitor 1.91 (2), listed as RN341
[15] = inhibitor 5.72 (6), listed as RN341
[16] = inhibitor 17.15 (17), listed as RN341
[17] = inhibitor 51.44 (51), listed as RN341
[18] = inhibitor 154.32 (154), listed as RN341
[19] = inhibitor 462.96 (463), listed as RN341
[20] = inhibitor 1388.89 (1389), listed as RN341
[21] = inhibitor 4166.67 (4167), listed as RN341
[22] = inhibitor 12500, listed as RN341

## Cc1ccc(-n2nc(C(C)(C)C)cc2NC(=O)Nc2cccc(-c3c[nH]c4nc(Cl)nc(N5CCOCC5)c34)c2)cc1 [Compound 30]
[1]
  % phosphorylation: 60.4% and 59.2% and 60.0%
  Normalized: 100.1 and 100.0 and 98.5
[2]
  % phosphorylation: 61.6% and 60.3% and 62.2%
  Normalized: 102.0 and 101.9 and 102.2
[3]
  % phosphorylation: 60.4% and 59.2%
  Normalized: 99.9 and 100.1 and 99.3
[4]
  % phosphorylation: 61.0% and 59.5% and 59.1%
  Normalized: 100.9 and 100.6 and 97.0
[5]
  % phosphorylation: 52.8% and 50.7% and 48.4%
  Normalized: 87.4 and 85.7 and 79.5
[6]
  % phosphorylation: 34.0% and 33.1% and 33.2%
  Normalized: 56.4 and 55.8 and 54.6
[7]
  % phosphorylation: 18.1% and 19.7% and 20.2%
  Normalized: 29.8 and 32.7 and 34.1
[8]
  % phosphorylation: 8.2% and 8.7% and 10.4%
  Normalized: 13.5 and 14.4 and 17.6
[9]
  % phosphorylation: 5.3% and 5.2% and 5.4%
  Normalized: 8.6 and 9.0
[10]
  % phosphorylation: 4.0% and 5.6%
  Normalized: 6.6 and 9.5
[11]
  % phosphorylation: 4.6% and 3.7% and 4.4%
  Normalized: 7.5 and 6.1
Inhibitor 0.64 nM
  LRRK2RCKW activity (% control): 102.03 % control
Inhibitor 5.72 nM
  LRRK2RCKW activity (% control): 99.57 % control
Inhibitor 17.15 nM
  LRRK2RCKW activity (% control): 84.23 % control
Inhibitor 51.44 nM
  LRRK2RCKW activity (% control): 55.63 % control
Inhibitor 154.32 nM
  LRRK2RCKW activity (% control): 32.20 % control
Inhibitor 462.96 nM
  LRRK2RCKW activity (% control): 15.20 % control
Inhibitor 1388.89 nM
  LRRK2RCKW activity (% control): 8.77 % control
  IC50: 0.07 µM

## CCSc1nc(NC)c2c(-c3cccc(NC(=O)Nc4cc(C(C)(C)C)nn4-c4ccc(C)cc4)c3)c[nH]c2n1 [Compound 32]
[12]
  % phosphorylation: 66.5% and 61.3% and 65.1%
  Normalized: 99.7 and 99.1 and 103.7
[13]
  % phosphorylation: 67.4% and 62.2% and 63.1%
  Normalized: 101.0 and 100.4 and 100.5
[14]
  % phosphorylation: 64.1% and 60.1% and 61.1%
  Normalized: 96.1 and 97.0 and 97.3
[15]
  % phosphorylation: 63.8% and 59.4% and 61.3%
  Normalized: 95.6 and 96.0 and 97.5
[16]
  % phosphorylation: 55.5% and 52.5% and 53.7%
  Normalized: 83.2 and 84.9 and 85.6
[17]
  % phosphorylation: 47.7% and 41.6% and 46.5%
  Normalized: 71.6 and 67.2 and 74.0
[18]
  % phosphorylation: 25.7% and 23.0% and 24.6%
  Normalized: 38.5 and 37.1 and 39.2
[19]
  % phosphorylation: 11.0% and 11.8% and 10.3%
  Normalized: 16.6 and 19.1 and 16.5
[20]
  % phosphorylation: 8.0% and 8.8% and 7.9%
  Normalized: 12.0 and 14.2 and 12.6
[21]
  % phosphorylation: 5.7% and 6.7% and 6.1%
  Normalized: 8.5 and 10.8 and 9.6
[22]
  % phosphorylation: 5.9% and 7.2% and 6.3%
  Normalized: 8.9 and 11.6 and 10.1
Inhibitor 0.64 nM
  LRRK2RCKW activity (% control): 100.63 % control
Inhibitor 5.72 nM
  LRRK2RCKW activity (% control): 96.37 % control
Inhibitor 17.15 nM
  LRRK2RCKW activity (% control): 84.53 % control
Inhibitor 51.44 nM
  LRRK2RCKW activity (% control): 70.93 % control
Inhibitor 154.32 nM
  LRRK2RCKW activity (% control): 38.27 % control
Inhibitor 462.96 nM
  LRRK2RCKW activity (% control): 17.40 % control
Inhibitor 1388.89 nM
  LRRK2RCKW activity (% control): 12.93 % control
  IC50: 0.11 µM
